Molecules are shown by their SMILES.

What all share (type): cell-based
Assay [1] deals with T1, M1 muscarinic receptor (Homo sapiens, UniProt P11229).
T1 construct: expressed in transfected cells; host or cells: CHO (M1-CHO)
T1 sequence (P11229 1-460): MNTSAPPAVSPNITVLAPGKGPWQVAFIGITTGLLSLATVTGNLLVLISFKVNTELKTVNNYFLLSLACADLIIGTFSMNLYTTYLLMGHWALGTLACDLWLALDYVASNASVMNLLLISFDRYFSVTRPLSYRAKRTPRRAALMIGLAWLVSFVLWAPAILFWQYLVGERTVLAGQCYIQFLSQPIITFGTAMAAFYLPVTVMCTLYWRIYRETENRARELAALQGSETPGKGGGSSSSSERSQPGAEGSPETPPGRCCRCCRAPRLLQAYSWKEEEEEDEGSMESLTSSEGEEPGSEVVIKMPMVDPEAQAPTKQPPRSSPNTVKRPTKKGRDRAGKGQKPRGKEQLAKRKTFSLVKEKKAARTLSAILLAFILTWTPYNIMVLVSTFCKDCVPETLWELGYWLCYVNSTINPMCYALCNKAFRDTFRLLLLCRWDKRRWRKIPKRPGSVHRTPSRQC
The experiment in a line: Functional mobilization of intracellular calcium (FLIPR), M1-CHO cells. To be noted: for Emax: 100% efficacy is the maximum response obtained with the Carbachol control; for M1 Activity: CHO cells expressing M1, calcium mobilization. The protocol:
(§1) Functional Mobilization of Intracellular Calcium to Determine Muscarinic Receptor Activity:
(§2) CHO cells expressing muscarinic receptors (M1 to M5) are grown as monolayers in tissue culture flasks at 37° C. in a humidified atmosphere containing 5% CO2 and passaged every 3-5 days. The growth media is Dulbecco's modified eagles medium (DMEM, Gibco Cat# 12430-054), containing 25 mM Hepes and supplemented with Fetal Bovine Serum (Hyclone, cat# SH30071.03), 0.1 mM of MEM non-essential amino acids (GIBCO, Cat# 11140-050), 1 mM MEM Sodium Pyruvate (GIBCO Cat# 11360-070) and 100 units/ml of Penicillin G and 100 μg/ml of Streptomycin (GIBCO Cat# 15140-122). The recombinant muscarinic receptor cell lines are grown under antibiotic pressure with media containing 25 μg/ml zeocin and 500 μg/ml G418 (M1-CHO), 4 μg/ml puromycin, 50 μg/ml zeocin and 2.5 μg/ml blasticidin (M2 and M4-CHO) or 50 μg/ml zeocin and 4 μg/ml puromycin (M3 and M5-CHO).
(§3) Cells are harvested at 80-90% confluence using Versene (GIBCO Cat# 15040-066), collected by centrifugation and seeded 18-24 hours prior to running the calcium assay at a density of 5,000-10,000 cells/well in […], clear-bottomed 384-well plates (BD Biocoat, poly-D-lysine, Cat#356663). The day of the experiment, the cells are washed with a plate washer (Bioteck Instruments, ELX 405) using Bath 1 buffer (140-mM NaCl, 4.5-mM KCl, 2-mM CaCl2, 1-mM MgCl2, 10-mM Hepes-Na, 10-mM Glucose, pH 7.4, with NaOH) containing 1 mM Probenecid. Next, the calcium dye Fluo-3 (25 μl/well of Fluo-3 AM at 4 μM, Molecular Probes F-1241, in Bath 1 buffer containing 1 mM Probenecid) is added to the 25 μl of Bath 1 remaining in each well after the plate wash and the dye is loaded at 37° C. in the tissue culture incubator for 60-90 min. The fluorescent dye is removed using the plate washer with Bath 1 containing 1 mM Probenecid, leaving 25 μl/well of this solution after the wash. Alternatively, cells can be loaded with the calcium indicator from Molecular Devices (Calcium 3 Assay Reagents, Cat # R7181) adding 5 μl of a 5× solution dye in Bath 1 containing 1 mM Probenecid (10 ml per dye flask cat# R7182 to generate a solution 20×) to 20 μl of the same buffer. After loading for 60 min, the experiment can be run without having to remove the dye.
(§4) Compounds are prepared at a 2× fold concentration in a 96-well plate (round bottom, Costar Corning cat# 3656), by reconstituting the pre-spotted compounds in bath 1 containing 1 mM probenecid. The final concentration DMSO is 0.5%, and the amount of DMSO is normalized across the assay plate. To determine an agonist action of the compounds on muscarinic receptors, the reconstituted compounds are added (25 μl compound/well) to the cell assay plate (containing 25 μl/well) using the multi-channel robotic system of the FLIPR 3 Instrument (Molecular Devices, Sunnyvale, Calif.). To determine a functional inhibitory action of the compounds on muscarinic receptors, the reconstituted compounds are added (25 μl compound/well) to the assay plate and pre-incubated for 15 min prior to adding 25 μl of Carbachol at 3× the EC80 for each muscarinic subtype. Alternatively, the compounds can be co-applied simultaneously with the agonist. In both assay modes, the fluorescence is recorded for 60 sec (excitation wavelength is […] and emission wavelength 540 nm) using the FLIPR 3 instrument.
(§5) The potency, efficacy and selectivity of the muscarinic compounds were evaluated by screening the compound activity across the whole family (M1 to M5 cells). Compounds were also screened for activity on other proteins such as other GPCRs and ion channels to determine selectivity on M4 receptors.
(§6) Examples of activities and efficacies of the muscarinic compounds of formulae (I, Ia, Ib, Ic, and Id) on modulating M1 and M4 receptors are shown below in Table 3. […]
A general note: A change in cytosolic calcium serves as a functional read-out for many receptors and channels.

The target of assay [2] is T2, M2 muscarinic receptor (Homo sapiens, UniProt P08172).
T2 construct: expressed in transfected cells; host or cells: CHO (M2-CHO)
T2 sequence (P08172 1-466): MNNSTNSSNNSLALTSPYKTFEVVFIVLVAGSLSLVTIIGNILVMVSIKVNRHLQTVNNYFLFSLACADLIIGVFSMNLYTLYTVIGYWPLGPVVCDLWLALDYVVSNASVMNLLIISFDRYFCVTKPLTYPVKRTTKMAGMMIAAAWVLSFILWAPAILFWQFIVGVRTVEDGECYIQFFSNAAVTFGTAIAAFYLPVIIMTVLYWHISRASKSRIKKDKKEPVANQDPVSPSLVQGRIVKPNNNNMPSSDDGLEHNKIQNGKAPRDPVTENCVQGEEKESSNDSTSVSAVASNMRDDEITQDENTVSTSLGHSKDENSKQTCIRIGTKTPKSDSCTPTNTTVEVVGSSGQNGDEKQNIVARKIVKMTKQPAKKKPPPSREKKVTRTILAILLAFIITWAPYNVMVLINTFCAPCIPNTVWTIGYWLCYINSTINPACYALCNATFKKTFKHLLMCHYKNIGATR
Nature of the assay: Functional mobilization of intracellular calcium (FLIPR), M2-CHO cells. To be noted: for Emax: 100% efficacy is the maximum response obtained with the Carbachol control; for M2 Activity: CHO cells expressing M2, calcium mobilization. The protocol:
as §1, §2, §3, §4, §5, §6

Assay [3] has as its target T3, M3 muscarinic receptor (Homo sapiens, UniProt P20309).
T3 construct: expressed in transfected cells; host or cells: CHO (M3-CHO)
The experiment in a line: Functional mobilization of intracellular calcium (FLIPR), M3-CHO cells. Particulars: for Emax: 100% efficacy is the maximum response obtained with the Carbachol control; for M3 Activity: CHO cells expressing M3, calcium mobilization. The protocol:
as §1, §2, §3, §4, §5, §6

The target of assay [4] is T4, M4 muscarinic receptor (Homo sapiens, UniProt P08173).
T4 construct: expressed in transfected cells; host or cells: CHO (M4-CHO)
T4 sequence (P08173 1-479): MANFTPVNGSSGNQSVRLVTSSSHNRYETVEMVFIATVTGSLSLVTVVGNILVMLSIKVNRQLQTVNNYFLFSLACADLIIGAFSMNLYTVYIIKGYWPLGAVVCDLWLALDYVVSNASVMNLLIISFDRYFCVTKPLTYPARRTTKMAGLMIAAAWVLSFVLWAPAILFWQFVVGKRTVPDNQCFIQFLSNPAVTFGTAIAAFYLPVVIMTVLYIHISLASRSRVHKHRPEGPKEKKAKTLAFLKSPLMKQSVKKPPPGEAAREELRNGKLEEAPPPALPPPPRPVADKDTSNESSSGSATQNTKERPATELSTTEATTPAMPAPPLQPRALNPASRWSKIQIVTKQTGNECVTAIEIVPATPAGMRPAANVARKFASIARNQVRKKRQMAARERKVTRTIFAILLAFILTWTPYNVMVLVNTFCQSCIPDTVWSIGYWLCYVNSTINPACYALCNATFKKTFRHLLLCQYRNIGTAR
Nature of the assay: Functional mobilization of intracellular calcium (FLIPR), M4-CHO cells. Particulars: for Emax: 100% efficacy is the maximum response obtained with the Carbachol control; for M4 Activity: CHO cells expressing M4, calcium mobilization. The protocol:
as §1, §2, §3, §4, §5, §6

T3 sequence (P20309 whole entry): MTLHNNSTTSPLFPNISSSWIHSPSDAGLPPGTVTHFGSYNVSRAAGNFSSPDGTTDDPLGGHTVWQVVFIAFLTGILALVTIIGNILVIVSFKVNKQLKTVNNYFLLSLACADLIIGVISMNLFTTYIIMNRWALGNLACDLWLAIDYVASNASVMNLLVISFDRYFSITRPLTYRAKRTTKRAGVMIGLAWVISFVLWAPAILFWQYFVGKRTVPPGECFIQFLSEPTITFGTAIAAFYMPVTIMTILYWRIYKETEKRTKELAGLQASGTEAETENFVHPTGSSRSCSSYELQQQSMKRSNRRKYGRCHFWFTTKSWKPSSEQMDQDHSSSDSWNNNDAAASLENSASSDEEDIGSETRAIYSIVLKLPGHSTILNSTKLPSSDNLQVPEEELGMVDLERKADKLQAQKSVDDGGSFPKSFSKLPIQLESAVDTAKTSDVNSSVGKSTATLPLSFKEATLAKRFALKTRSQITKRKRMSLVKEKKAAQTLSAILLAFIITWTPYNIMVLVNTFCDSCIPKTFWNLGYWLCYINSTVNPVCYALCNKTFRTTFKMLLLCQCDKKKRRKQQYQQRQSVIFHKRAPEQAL

By Emax is commonly meant the maximal effect, on the per cent scale that the assay sets. Take `CCON=C1CCC(N2CCC3(CC2)OC(=O)Nc2ccccc23)CC1` (centres unmarked) [Compound 3, 1′-(4-(ethoxyimino)cyclohexyl)spiro[benzo[d][1,3]oxazine-4,4′-piperidin]-2(1H)-one]: in assay [1], the Emax was in the range of 25 to 100% and the “M1 Activity” value is recorded as “+++ (activity was measured to be less than 2.0 μM)”. Further, in assay [2], the Emax was in the range of 25 to 100% and the “M2 Activity” value was “+++ (activity was measured to be less than 2.0 μM)”. Also, in assay [3], the maximal effect (Emax) is 25 to 100% and the “M3 Activity” value was “+++ (activity was measured to be less than 2.0 μM)”. For the same compound, in assay [4], the Emax fell in the range of 25 to 100% and the “M4 Activity” value is “+++ (activity was measured to be less than 2.0 μM)”.
Consider `O=C1Nc2ccccc2C2(CCN(C3CCCCCC3)CC2)O1` [Compound 5, 1′-cycloheptylspiro[benzo[d][1,3]oxazine-4,4′-piperidin]-2(1H)-one], for which, in assay [1], the maximal response (Emax) was 25 to 100% and the “M1 Activity” value is on record as “+++ (activity was measured to be less than 2.0 μM)”. Further, in assay [2], the Emax fell in the range of 25 to 100% and the “M2 Activity” value is given as “+ (activity was measured to be greater than 5.0 μM)”. For the same compound, in assay [3], the Emax was under 25% and the “M3 Activity” value is reported as “+ (activity was measured to be greater than 5.0 μM)”. In assay [4], the maximal response (Emax) was in the range of 25 to 100% and the “M4 Activity” value was “+++ (activity was measured to be less than 2.0 μM)”.
Turning to `O=C1Nc2ccccc2C2(CCN(CC3CCCOC3)CC2)O1` (centres unmarked) [Compound 11], in assay [1], the Emax fell in the range of 25 to 100% and the “M1 Activity” value is recorded as “+++ (activity was measured to be less than 2.0 μM)”. In assay [2], the Emax was in the range of 25 to 100% and the “M2 Activity” value is given as “+ (activity was measured to be greater than 5.0 μM)”. Further, in assay [3], the Emax was under 25% and the “M3 Activity” value is on record as “+ (activity was measured to be greater than 5.0 μM)”. In assay [4], the Emax lay within 25 to 100% and the “M4 Activity” value is recorded as “+++ (activity was measured to be less than 2.0 μM)”.
As to `CCOC(=O)N1CCC(CN2CCC3(CC2)OC(=O)Nc2ccccc23)CC1` [Compound 13, ethyl-4-((2-oxo-1,2-dihydrospiro[benzo[d][1,3]oxazine-4,4′-piperidine]-1′-yl)methyl)piperidine-1-carboxylate], in assay [1], the maximal response (Emax) is 25 to 100% and the “M1 Activity” value was “+++ (activity was measured to be less than 2.0 μM)”. Also, in assay [2], the maximal effect (Emax) lay within 25 to 100% and the “M2 Activity” value was “+++ (activity was measured to be less than 2.0 μM)”. Moreover, in assay [3], the maximal response (Emax) fell in the range of 25 to 100% and the “M3 Activity” value was “+++ (activity was measured to be less than 2.0 μM)”. Moreover, in assay [4], the Emax lay within 25 to 100% and the “M4 Activity” value is “+++ (activity was measured to be less than 2.0 μM)”.
On to `O=C1Nc2ccccc2C2(CCN(CC3CCCCC3)CC2)O1` [Compound 27], for which, in assay [1], the maximum response (Emax) was in the range of 25 to 100% and the “M1 Activity” value was “+++ (activity was measured to be less than 2.0 μM)”. Also, in assay [2], the maximal response (Emax) is 25 to 100% and the “M2 Activity” value is reported as “++ (activity was measured to be from 2.0 μM to 5.0 μM)”. Also, in assay [3], the maximum response (Emax) is under 25% and the “M3 Activity” value is “+ (activity was measured to be greater than 5.0 μM)”. In addition, in assay [4], the maximal response (Emax) is 25 to 100% and the “M4 Activity” value is listed as “+++ (activity was measured to be less than 2.0 μM)”.
On to `CCC(C)(C)C1CCC(N2CCC3(CC2)OC(=O)Nc2ccccc23)CC1` (centres unmarked) [Compound 35], for which, in assay [1], the Emax lay within 25 to 100% and the “M1 Activity” value is “+++ (activity was measured to be less than 2.0 μM)”. Also, in assay [2], the Emax was under 25% and the “M2 Activity” value is on record as “+ (activity was measured to be greater than 5.0 μM)”. Besides, in assay [3], the maximum response (Emax) is under 25% and the “M3 Activity” value was “+ (activity was measured to be greater than 5.0 μM)”. Also, in assay [4], the Emax is under 25% and the “M4 Activity” value is recorded as “+ (activity was measured to be greater than 5.0 μM)”.
For `O=C1Nc2ccccc2C2(CCN(C3CCNCC3)CC2)O1` [Compound 49, 1′-(piperidin-4-yl)spiro[benzo[d][1,3]oxazine-4,4′-piperidin]-2(1H)-one], in assay [1], the maximum response (Emax) lay within 25 to 100% and the “M1 Activity” value is “+ (activity was measured to be greater than 5.0 μM)”. In assay [2], the maximum response (Emax) is under 25% and the “M2 Activity” value is “+ (activity was measured to be greater than 5.0 μM)”. Moreover, in assay [3], the Emax was under 25% and the “M3 Activity” value is on record as “+ (activity was measured to be greater than 5.0 μM)”. Besides, in assay [4], the Emax is under 25% and the “M4 Activity” value is given as “+ (activity was measured to be greater than 5.0 μM)”.
